# From patent US12371428B2 (Exelixis, Inc., priority 2019, dated 2025)
# Where two headings read alike, the source gives them in different places.
# Columns and labels:
# Type in all cases: cell-based
# [1] = biological target: AXL (phospho-AXL, Gas6-stimulated A-172 glioblastoma cells) (Homo sapiens (Human), UniProt P30530); assay: AXL autophosphorylation ELISA in A-172 cells (Example E)
# How it was run: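 Phospho-AXL was measured by ELISA in lysates of Gas6-stimulated A-172 cells, starved 24 h in serum-free medium and exposed 1 h to an 8-point compound dilution at 0.3% DMSO.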
# [2] = biological target: Met (phospho-Met, HGF-stimulated PC-3 prostate cancer cells) (Homo sapiens (Human), UniProt P08581); assay: Met autophosphorylation ELISA in PC-3 cells (Example F); conditions: cellular activity; Met autophosphorylation ELISA in PC-3 cells; read-out: c-Met IC50
# How it was run: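 Sandwich ELISA for phospho-Met (panTyr) in PC-3 lysates. Cells starved 3 h serum-free, compound 1 h (8-pt curve, 0.3% DMSO), HGF 100 ng/mL 10 min. 100% = HGF + DMSO; 0% = HGF + reference inhibitor. IC50 by 4-parameter fit.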
# [3] = biological target: KDR (phospho-KDR, VEGF165-stimulated HUVEC cells) (Homo sapiens (Human), UniProt P35968); assay: KDR autophosphorylation ELISA in HUVEC cells (Example G); conditions: cellular activity; KDR autophosphorylation ELISA in HUVEC cells
# How it was run: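 Inhibition of VEGF165-driven KDR autophosphorylation is measured in primary human umbilical vein endothelial cells after 24 h serum deprivation. Compound preincubation lasts 1 h before a 5-minute challenge with 100 ng/mL ligand, and phosphorylated receptor is then measured by ELISA in the lysates.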
# [4] = biological target: Mer (phospho-Mer, MERTK-transfected 293A cells) (Homo sapiens (Human), UniProt Q12866); assay: Mer autophosphorylation ELISA in transient transfected 293A cells (Example H); conditions: cellular activity; Mer autophosphorylation ELISA in transient transfected 293A cells
# How it was run: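 IC50 from phospho-Mer ELISA of MERTK-transfected 293A cell lysates after 1 h treatment with serially diluted compound in serum-free medium.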
# [5] = cellular activity, AXL autophosphorylation ELISA in A-172 cells, read-out: Axl IC50
# AXL (phospho-AXL, Gas6-stimulated A-172 glioblastoma cells), sequence (P30530 26-894): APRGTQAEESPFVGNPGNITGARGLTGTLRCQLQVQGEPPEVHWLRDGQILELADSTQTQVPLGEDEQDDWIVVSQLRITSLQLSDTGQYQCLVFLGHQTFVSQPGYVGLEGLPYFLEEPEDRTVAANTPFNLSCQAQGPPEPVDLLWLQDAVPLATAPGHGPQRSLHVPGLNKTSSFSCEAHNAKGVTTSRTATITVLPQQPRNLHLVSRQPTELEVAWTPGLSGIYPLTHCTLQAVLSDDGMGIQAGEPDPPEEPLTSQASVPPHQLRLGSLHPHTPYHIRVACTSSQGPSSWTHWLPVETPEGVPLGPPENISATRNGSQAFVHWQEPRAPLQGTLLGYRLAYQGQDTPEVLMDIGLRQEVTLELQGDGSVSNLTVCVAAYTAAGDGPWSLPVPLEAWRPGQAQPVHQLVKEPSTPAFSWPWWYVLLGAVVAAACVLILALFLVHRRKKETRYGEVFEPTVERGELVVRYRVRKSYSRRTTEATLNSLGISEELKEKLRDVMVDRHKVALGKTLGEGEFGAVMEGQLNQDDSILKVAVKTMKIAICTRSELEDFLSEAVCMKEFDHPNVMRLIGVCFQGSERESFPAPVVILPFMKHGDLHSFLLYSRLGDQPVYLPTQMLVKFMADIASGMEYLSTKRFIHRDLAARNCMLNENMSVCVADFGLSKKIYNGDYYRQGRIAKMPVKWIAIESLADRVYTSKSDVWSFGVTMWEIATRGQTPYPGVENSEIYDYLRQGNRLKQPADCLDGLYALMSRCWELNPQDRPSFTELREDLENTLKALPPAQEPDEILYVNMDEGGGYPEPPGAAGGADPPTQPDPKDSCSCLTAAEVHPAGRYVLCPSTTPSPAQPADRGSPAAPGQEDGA
# Mer (phospho-Mer, MERTK-transfected 293A cells), sequence (Q12866 21-999): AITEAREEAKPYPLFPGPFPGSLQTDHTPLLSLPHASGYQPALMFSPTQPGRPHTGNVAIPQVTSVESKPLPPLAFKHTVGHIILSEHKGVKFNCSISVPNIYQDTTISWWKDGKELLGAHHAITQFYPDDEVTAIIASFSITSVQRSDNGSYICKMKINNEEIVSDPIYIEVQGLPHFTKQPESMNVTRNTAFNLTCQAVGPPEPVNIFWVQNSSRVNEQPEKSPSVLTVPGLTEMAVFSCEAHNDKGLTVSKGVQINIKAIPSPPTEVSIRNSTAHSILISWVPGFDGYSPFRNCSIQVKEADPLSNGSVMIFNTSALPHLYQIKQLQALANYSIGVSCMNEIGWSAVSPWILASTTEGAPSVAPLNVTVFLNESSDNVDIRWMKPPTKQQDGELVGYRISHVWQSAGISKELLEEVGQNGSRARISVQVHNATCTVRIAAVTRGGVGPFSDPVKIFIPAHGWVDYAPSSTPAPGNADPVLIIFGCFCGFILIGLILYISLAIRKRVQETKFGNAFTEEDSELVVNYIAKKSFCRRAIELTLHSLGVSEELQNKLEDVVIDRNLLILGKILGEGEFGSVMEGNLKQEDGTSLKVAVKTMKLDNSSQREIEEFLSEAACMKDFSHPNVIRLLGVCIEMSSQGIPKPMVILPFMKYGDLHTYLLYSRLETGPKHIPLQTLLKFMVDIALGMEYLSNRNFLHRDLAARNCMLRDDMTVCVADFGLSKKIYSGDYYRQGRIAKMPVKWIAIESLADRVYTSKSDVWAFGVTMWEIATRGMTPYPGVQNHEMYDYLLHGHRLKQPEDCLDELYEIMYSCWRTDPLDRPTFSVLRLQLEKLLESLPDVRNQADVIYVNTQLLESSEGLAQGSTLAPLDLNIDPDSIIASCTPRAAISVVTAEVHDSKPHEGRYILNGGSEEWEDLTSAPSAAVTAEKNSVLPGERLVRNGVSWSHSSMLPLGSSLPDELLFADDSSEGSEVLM
# Met (phospho-Met, HGF-stimulated PC-3 prostate cancer cells), sequence (P08581 25-1390): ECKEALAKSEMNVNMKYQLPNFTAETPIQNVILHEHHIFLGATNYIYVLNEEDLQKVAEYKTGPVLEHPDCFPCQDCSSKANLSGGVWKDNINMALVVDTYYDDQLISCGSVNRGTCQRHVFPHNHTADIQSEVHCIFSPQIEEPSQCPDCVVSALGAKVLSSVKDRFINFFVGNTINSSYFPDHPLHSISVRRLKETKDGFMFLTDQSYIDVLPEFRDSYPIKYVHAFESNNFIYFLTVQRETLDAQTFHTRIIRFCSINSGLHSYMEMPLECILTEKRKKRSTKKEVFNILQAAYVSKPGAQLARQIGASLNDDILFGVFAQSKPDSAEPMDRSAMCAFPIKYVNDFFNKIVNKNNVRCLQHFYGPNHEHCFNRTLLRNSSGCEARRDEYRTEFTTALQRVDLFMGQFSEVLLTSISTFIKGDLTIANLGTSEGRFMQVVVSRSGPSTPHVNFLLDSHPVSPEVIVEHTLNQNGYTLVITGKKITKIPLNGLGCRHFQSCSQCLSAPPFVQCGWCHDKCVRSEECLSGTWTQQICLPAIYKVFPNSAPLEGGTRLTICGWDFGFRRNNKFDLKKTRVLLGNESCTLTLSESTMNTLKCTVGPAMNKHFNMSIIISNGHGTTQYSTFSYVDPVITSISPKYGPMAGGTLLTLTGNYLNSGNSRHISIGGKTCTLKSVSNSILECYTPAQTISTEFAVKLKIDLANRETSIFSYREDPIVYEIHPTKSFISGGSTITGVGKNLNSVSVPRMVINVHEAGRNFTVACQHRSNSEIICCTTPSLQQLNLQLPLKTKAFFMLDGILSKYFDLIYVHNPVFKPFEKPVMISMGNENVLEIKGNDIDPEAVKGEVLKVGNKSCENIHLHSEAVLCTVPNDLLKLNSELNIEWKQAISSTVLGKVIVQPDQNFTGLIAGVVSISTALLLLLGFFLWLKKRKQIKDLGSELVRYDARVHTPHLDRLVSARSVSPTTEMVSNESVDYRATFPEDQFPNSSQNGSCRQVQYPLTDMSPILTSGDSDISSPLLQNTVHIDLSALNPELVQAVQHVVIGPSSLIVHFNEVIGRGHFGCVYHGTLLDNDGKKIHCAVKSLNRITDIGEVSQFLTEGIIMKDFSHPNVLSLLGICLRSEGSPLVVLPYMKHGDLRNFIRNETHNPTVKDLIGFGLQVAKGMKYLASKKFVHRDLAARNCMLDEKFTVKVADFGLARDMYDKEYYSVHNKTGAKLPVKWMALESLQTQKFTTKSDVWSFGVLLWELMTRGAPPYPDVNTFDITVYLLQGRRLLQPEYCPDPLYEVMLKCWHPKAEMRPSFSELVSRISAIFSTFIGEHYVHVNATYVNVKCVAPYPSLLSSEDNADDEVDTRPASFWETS
# KDR (phospho-KDR, VEGF165-stimulated HUVEC cells), sequence (P35968 20-1356): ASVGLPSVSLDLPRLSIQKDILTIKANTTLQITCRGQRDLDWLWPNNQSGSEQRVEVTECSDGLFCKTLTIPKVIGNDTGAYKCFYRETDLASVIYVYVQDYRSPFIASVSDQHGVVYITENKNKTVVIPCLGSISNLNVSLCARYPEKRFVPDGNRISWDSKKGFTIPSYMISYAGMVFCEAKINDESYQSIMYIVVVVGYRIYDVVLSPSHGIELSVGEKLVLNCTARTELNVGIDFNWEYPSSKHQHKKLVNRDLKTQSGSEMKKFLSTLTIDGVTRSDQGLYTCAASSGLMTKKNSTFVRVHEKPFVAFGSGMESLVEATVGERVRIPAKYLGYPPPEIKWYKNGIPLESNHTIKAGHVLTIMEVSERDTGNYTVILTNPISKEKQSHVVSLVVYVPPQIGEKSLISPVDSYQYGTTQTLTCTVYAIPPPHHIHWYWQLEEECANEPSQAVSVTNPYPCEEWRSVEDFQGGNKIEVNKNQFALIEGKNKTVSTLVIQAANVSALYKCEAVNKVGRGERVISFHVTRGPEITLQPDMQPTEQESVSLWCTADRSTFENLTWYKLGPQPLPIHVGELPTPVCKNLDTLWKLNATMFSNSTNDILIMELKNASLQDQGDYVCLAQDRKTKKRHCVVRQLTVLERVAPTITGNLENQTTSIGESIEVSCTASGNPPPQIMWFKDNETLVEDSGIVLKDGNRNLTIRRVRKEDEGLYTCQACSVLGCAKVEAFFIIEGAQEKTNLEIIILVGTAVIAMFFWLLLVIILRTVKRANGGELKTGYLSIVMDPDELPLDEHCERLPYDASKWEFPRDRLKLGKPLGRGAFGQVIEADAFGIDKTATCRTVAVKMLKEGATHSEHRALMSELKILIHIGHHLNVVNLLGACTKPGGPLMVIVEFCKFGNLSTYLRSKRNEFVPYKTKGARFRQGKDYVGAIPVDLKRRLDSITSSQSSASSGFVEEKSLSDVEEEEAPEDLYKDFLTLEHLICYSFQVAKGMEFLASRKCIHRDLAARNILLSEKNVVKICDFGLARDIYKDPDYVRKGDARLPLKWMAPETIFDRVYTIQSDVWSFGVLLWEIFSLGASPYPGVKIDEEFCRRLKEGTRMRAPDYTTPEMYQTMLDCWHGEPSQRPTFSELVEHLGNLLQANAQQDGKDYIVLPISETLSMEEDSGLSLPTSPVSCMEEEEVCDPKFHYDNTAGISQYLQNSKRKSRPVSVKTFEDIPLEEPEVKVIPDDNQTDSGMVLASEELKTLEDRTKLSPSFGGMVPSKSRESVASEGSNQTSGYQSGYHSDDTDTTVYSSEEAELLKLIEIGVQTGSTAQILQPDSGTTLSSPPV
SMILES,"IC50 [1, 5] [nM]",IC50 [2] [nM],IC50 [3] [nM],IC50 [4] [nM],IC50 [1] [nM]
"COc1cc2nccc(Oc3ccc(NC(=O)c4cn(C(C)(C)CO)cc(-c5ccc(F)cc5)c4=O)cc3F)c2nc1OC [Compound 56, N-[4-[(6,7-Dimethoxy-1,5-naphthyridin-4-yl)oxy]-3-fluorophenyl]-5-(4-fluorophenyl)-1-(1-hydroxy-2-methylpropan-2-yl)-4-oxopyridine-3-carboxamide]",< 100,< 100,> 300,< 100,
"COc1cnc2c(Oc3ccc(NC(=O)c4c(C)c(C(C)=O)c(C)n(-c5ccc(F)cc5)c4=O)cc3F)ccnc2c1 [Compound 323, 5-Acetyl-N-[3-fluoro-4-[(7-methoxy-1,5-naphthyridin-4-yl)oxy]phenyl]-1-(4-fluorophenyl)-4,6-dimethyl-2-oxopyridine-3-carboxamide]",< 100,< 100,100 to 300,< 100,
"COc1cc2nccc(Oc3ccc(NC(=O)c4cn5c(c(-c6ccc(F)cc6)c4=O)CCC5)cc3F)c2nc1OC [Compound 362, N-[4-[(6,7-dimethoxy-1,5-naphthyridin-4-yl)oxy]-3-fluorophenyl]-8-(4-fluorophenyl)-7-oxo-2,3-dihydro-1H-indolizine-6-carboxamide]",< 100,< 100,< 100,< 100,
"COc1cnc2c(Oc3ccc(NC(=O)c4c(C)c(F)c(C)n(-c5ccc(F)cc5)c4=O)cc3F)ccnc2c1 [Compound 326, 5-Fluoro-N-[3-fluoro-4-[(7-methoxy-1,5-naphthyridin-4-yl)oxy]phenyl]-1-(4-fluorophenyl)-4,6-dimethyl-2-oxopyridine-3-carboxamide]",< 100,< 100,100 to 300,< 100,

# Continued, values first:
"IC50 [1, 5] [nM]",IC50 [2] [nM],IC50 [3] [nM],IC50 [4] [nM],IC50 [1] [nM],SMILES
< 100,< 100,< 100,< 100,,"COc1cc2nccc(Oc3ccc(NC(=O)c4c(C)[nH]nc(-c5ccc(F)cc5C)c4=O)cc3F)c2nc1OC [Compound 738, N-[4-[(6,7-dimethoxy-1,5-naphthyridin-4-yl)oxy]-3-fluorophenyl]-3-(4-fluoro-2-methylphenyl)-6-methyl-4-oxo-1H-pyridazine-5-carboxamide]"
< 100,< 100,< 100,< 100,,"COc1cnc2c(Oc3cc(F)c(NC(=O)c4c(C)nc(C)c(-c5ccc(F)cc5C)c4O)cc3Cl)ccnc2c1 [Compound 770, N-[5-chloro-2-fluoro-4-[(7-methoxy-1,5-naphthyridin-4-yl)oxy]phenyl]-5-(4-fluoro-2-methylphenyl)-4-hydroxy-2,6-dimethylpyridine-3-carboxamide]"
,< 100,100 to 300,< 100,< 100,"COc1cc2nccc(Oc3ccc(NC(=O)c4c(C)n(C)nc(-c5ccc(F)cc5C)c4=O)cc3F)c2nc1OC [Compound 750, N-[4-[(6,7-dimethoxy-1,5-naphthyridin-4-yl)oxy]-3-fluorophenyl]-6-(4-fluoro-2-methylphenyl)-2,3-dimethyl-5-oxopyridazine-4-carboxamide]"
< 100,< 100,< 100,< 100,,"COc1cc2nccc(Oc3ccc(NC(=O)c4c(C)c(C)cn(-c5ccc(F)cc5)c4=O)cc3F)c2nc1OC [Compound 679, N-[4-[(6,7-dimethoxy-1,5-naphthyridin-4-yl)oxy]-3-fluorophenyl]-1-(4-fluorophenyl)-4,5-dimethyl-2-oxopyridine-3-carboxamide]"
< 100,< 100,< 100,< 100,,"COc1cc2nccc(Oc3ccc(NC(=O)c4nn(C(C)C)c(C)c(-c5ccc(F)cc5)c4=O)cc3F)c2cc1OC [Compound 575, N-[4-(6,7-Dimethoxyquinolin-4-yl)oxy-3-fluorophenyl]-5-(4-fluorophenyl)-6-methyl-4-oxo-1-propan-2-ylpyridazine-3-carboxamide]"
